Results taken from article PMC8622523, “New Diterpenoids from Mesona procumbens with Antiproliferative Activities Modulate Cell Cycle Arrest and Apoptosis in Human Leukemia Cancer Cells” (Pharmaceuticals, 2021).

How the values were obtained:
[1] = tested on: human breast cancer cell line MCF-7; parameters: method as in PMID 15639346; conditions: cited from earlier work
[2] = tested on: PC-3 (human prostate carcinoma); test: Cytotoxicity assay (Cell Counting Kit-8), PC-3; format: cell-based; conditions: 72 h of drug treatment, means ± SD of 3 independent experiments
Procedure: (§1) A549 (human lung carcinoma), Hep-3B (human liver carcinoma), PC-3 (human prostate carcinoma), HT29 (human colon carcinoma), U937 (human monoblastic leukemia), and RAW 264.7 cells were purchased from the Food Industry Research and Development Institute (Hsinchu, Taiwan) and cultured in 10% heat-inactivated fetal bovine serum (FBS) in DMEM or RPMI-1640. Cell viability was determined by using Cell Counting Kit-8 (CCK-8; Dojindo, Rockville, MD, USA) according to the manufacturer’s instructions. All experiments were performed in triplicate.

[3] = tested on: U937 (human monoblastic leukemia); test: Cytotoxicity assay (Cell Counting Kit-8), U937; format: cell-based; conditions: for IC50: 72 h of drug treatment, Cell Counting Kit-8, means ± SD of 3 independent experiments; for times less potent than 1 and 2: U937 cell lines, SAR comparison
Procedure: as §1

[4] = tested on: A549 (human lung carcinoma); test: Cytotoxicity assay (Cell Counting Kit-8), A549; format: cell-based; conditions: 72 h of drug treatment, means ± SD of 3 independent experiments
Procedure: as §1

[5] = tested on: HT29 (human colon carcinoma); test: Cytotoxicity assay (Cell Counting Kit-8), HT29; format: cell-based; conditions: 72 h of drug treatment, means ± SD of 3 independent experiments
Procedure: as §1

[6] = tested on: Hep-3B (human liver carcinoma); test: Cytotoxicity assay (Cell Counting Kit-8), Hep-3B; format: cell-based; conditions: 72 h of drug treatment, means ± SD of 3 independent experiments
Procedure: as §1

[7] = tested on: normal mouse RAW 264.7 macrophages; test: Cytotoxicity assay (Cell Counting Kit-8), RAW 264.7; format: cell-based; conditions: for IC50: normal mouse macrophage cell line, 72 h of drug treatment, Cell Counting Kit-8; for toxicity against normal mouse RAW 264.7 macrophages compared with cancer cells: in words
Procedure: as §1

[8] = tested on: A549, Hep-3B, PC-3, HT29, and U937 cancer cells; test: Antiproliferative activity, panel of five cancer cell lines; format: cell-based; conditions: Homo sapiens, read-out: IC50 values, range over five cancer cell lines
Procedure: as §1

U937 cells [9] = test: Measurement of intracellular ROS generation (DCFDA); format: cell-based, human; conditions: for intracellular ROS levels compared to control: 5 µM mesonol A or 10 µM mesonol B, 30 min, DCFH-DA
Procedure: U937 cells were seeded onto 96-well microplates at a final concentration of 1 × 10^5 cells per well and treated with mesonol A or B (5 or 10 µM) for 30 min with or without pretreatment with N-acetylcysteine (NAC) (10 mM) for 1 h. The cells were stained with 2′,7′-dichlorofluorescin diacetate (DCFDA) Cellular Reactive Oxygen Species Detection Assay Kit (Abcam, Cambridge, UK) solution (20 µM) and then incubated at 37 °C for 30 min in the dark. Fluorescence measurements were performed with a fluorescence plate reader (Bio-Rad, Hercules, CA, USA) at Ex/Em = 485/535 nm in end point mode in the presence of compounds, medium, or buffer. All experiments were performed in triplicate.

U937 cells [10] = test: Cell cycle and sub-G1 analysis by flow cytometry (PI staining); format: cell-based, human; conditions: for time course cell cycle analysis: 5 μM mesonol A or 10 μM mesonol B, 3-24 h; for effect of NAC pretreatment on compound-induced cell cycle change (sub-G1 accumulation or G2/M arrest): 10 mM NAC for 1 h, then 5 µM mesonol A 12 h or 10 µM mesonol B 6 h
Procedure: U937 cells were treated with mesonols A (1) or B (2), dosage range: 0.625–10 µM, for the specified time period, fixed in ice-cold 70% ethanol in PBS, suspended in Krishan’s reagent (0.05 mg/mL propidium iodide (PI), 0.1% sodium citrate, 0.02 mg/mL ribonuclease A and 0.3% NP-40), and incubated on ice for 30 min. Data acquisition for 10,000 events was performed with an FACScan system (Becton Dickinson). The distribution of cells in the different phases of the cell cycle was analyzed from the DNA histograms using CELL Quest software. All experiments were performed in triplicate.

U937 cells [11] = test: Western blot analysis of cell cycle regulators and apoptosis-related proteins; format: cell-based, human
Procedure: Cells were lysed in RIPA buffer with phenylmethylsulfonyl fluoride (PMSF; Beyotime Biotechnology, Jiangsu, China). The protein concentration was determined using a Bio-Rad protein assay system (Bio-Rad, Hercules, CA, USA). Equivalent amounts of proteins were separated by SDS–PAGE and then transferred to polyvinylidene difluoride membranes (Bio-Rad). After blocking in TBS containing 5% nonfat milk, the membranes were incubated with primary antibodies (1:1000 dilution) at 4 °C for 12 h and then incubated with a horseradish peroxidase-conjugated secondary antibody (1:5000 dilution). Signals were detected on X-ray film using an ECL detection system (Pierce, Rockford, IL, USA). The relative protein levels were calculated based on β-actin as the loading control.

| SMILES | IC50 ([2]; Homo sapiens, 72 h) [µM] | IC50 ([7]; RAW264.7) [µM] | IC50 [8] [µM] | IC50 ([3]; Homo sapiens, U-937, 72 h) [µM] | IC50 ([4]; Homo sapiens, A549, 72 h) [µM] | IC50 ([5]; Homo sapiens, HT-29, 72 h) [µM] | IC50 ([6]; Homo sapiens, Hep3B, 72 h) [µM] | also measured |
| --- | --- | --- | --- | --- | --- | --- | --- | --- |
| CC1(C)CCC[C@]2(C)[C@@H]1CC[C@@]13C[C@@H](CC[C@H]12)[C@@](O)(CO)C3.CC1(C)CCC[C@]2(C)[C@@H]1CC[C@@]13C[C@@H](CC[C@H]12)[C@@](O)(CO)C3.O (single isomer, unassigned; ent-16) [ent-16β,17α-dihydroxykaurane] |  |  |  |  |  |  |  | cytotoxicity and apoptotic effects [1]: exhibit cytotoxicity and apoptotic effects |
| CCc1c2c(nc3ccc(OC(=O)N4CCC(N5CCCCC5)CC4)cc13)-c1cc3c(c(=O)n1C2)COC(=O)[C@]3(O)CC [CPT-11, reference compound] |  |  |  |  |  |  |  | IC50 [2]: 31.03 ± 0.28 µM; IC50 [3]: 4.95 ± 0.43 µM; IC50 [4]: 15.3 ± 0.42 µM; IC50 [5]: 15.1 ± 0.48 µM; IC50 [6]: 23.2 ± 0.38 µM |
| CC1(C)CCCC2(C)C1CCC13CC(C(O)CC12)C(O)(CO)C3=O (stereo not drawn) [Compound 1, 12α,16β,17-trihydroxy-ent-kaur-15-one] | 12.5 ± 0.24 | > 50 | 1.97 to 19.9 | 2.66 ± 0.14 | 17.4 ± 0.28 | 9.1 ± 0.38 | 12.1 ± 0.55 | toxicity against normal mouse RAW 264.7 macrophages compared with cancer cells [7]: less toxic against normal mouse RAW 264.7 macrophages; intracellular ROS levels compared to control (U937 cells [9]): did not induce an increase in intracellular ROS levels; time course cell cycle analysis (U937 cells [10]): time-dependent accumulation of cells arrested in the G2/M phase; effect on cell population at G2/M phase (U937 cells [10]; 10 μM, 24 h): significant increase in the cell population at G2/M phase; effect of NAC pretreatment on compound-induced cell cycle change (sub-G1 accumulation or G2/M arrest) (U937 cells [10]): little to no effect; effect on percentage of sub-G1 population, dose response (U937 cells [10]; 0.625-10 μM, 24 h, plateau at 5 μM): dose-dependently increased the percentage of the sub-G1 population; G2/M progression proteins cdc25c, cyclin B1, CDK1 (U937 cells [11]; 5 µM, 12 h): decreases in the G2/M progression proteins cdc25c, cyclin B1, and CDK1; p21 protein level (U937 cells [11]; 5 µM, 12 h): significant increase in p21 protein |
| CC1(C)CCCC2(C)C1CCC13CC(C(O)CC12)C(CO)C3=O (stereo not drawn) [Compound 2, 12α-hydroxy-16β-hydroxymethyl-ent-kaur-15-one] | 4.19 ± 0.31 | > 50 | 1.97 to 19.9 | 1.97 ± 0.09 | 7.39 ± 0.42 | 2.78 ± 0.03 | 7.06 ± 0.38 | toxicity against normal mouse RAW 264.7 macrophages compared with cancer cells [7]: less toxic against normal mouse RAW 264.7 macrophages; intracellular ROS levels compared to control (U937 cells [9]): significantly higher than those in control cells; intracellular ROS levels with NAC pretreatment (U937 cells [9]; 10 mM NAC 1 h, then 10 µM mesonol B 30 min): could be blocked by pretreatment with NAC; time course cell cycle analysis (U937 cells [10]): did not cause an obvious accumulation of cells in any phase but significantly increased apoptotic cells in the sub-G1 population; sub-G1 population (U937 cells [10]; 5 μM, 24 h): 6.33%; sub-G1 population (U937 cells [10]; 10 μM, 24 h): 53.86%; effect of NAC pretreatment on compound-induced cell cycle change (sub-G1 accumulation or G2/M arrest) (U937 cells [10]): significantly suppressed; PARP cleavage (U937 cells [11]; 10 µM, 6 h): significantly cleaved and activated; antiapoptotic proteins (Bcl-2, Bcl-xL) (U937 cells [11]; 10 µM, 6 h): decreases in antiapoptotic proteins, including Bcl-2 and Bcl-xL; caspase-9 and -3 activation (pro-caspase-9 and -3 protein levels) (U937 cells [11]; 10 µM, 6 h): induced the activation of caspase-9 and -3; proapoptosis-related proteins (Bax, cytochrome c, apaf-1) (U937 cells [11]; 10 µM, 6 h): increases in proapoptosis-related proteins, including Bax, cytochrome c and apaf-1 |
| CC1(C)CCCC2(C)C1CCC13CC(C(O)CC21)C(O)(CO)C3O (stereo not drawn) [Compound 3, 12α,15β,16β,17-tetrahydroxy-ent-kaurane] | 16.5 ± 0.55 | > 50 | 1.97 to 19.9 |  | 17.1 ± 0.36 | 14.2 ± 0.31 | 17.1 ± 0.73 | IC50 [3]: 6.73 ± 0.36 µM; times less potent than 1 and 2 [3]: 2–3 times |
| CC1(C)CCCC2(C)C1CCC13CC(C(O)CC21)C(O)(CCl)C3O (stereo not drawn) [Compound 4, 12α,15β,16β-trihydroxy-17-chloro-ent-kaurane] | 16 ± 0.21 | > 50 | 1.97 to 19.9 | 8.25 ± 0.24 | 19.4 ± 0.38 | 12.6 ± 0.55 | 19.9 ± 0.73 | times less potent than 1 and 2 [3]: 2–3 times |
| CC1(C)CCCC2(C)C1CCC13CC(C(O)CC21)C(O)(CO)C3O (stereo not drawn) [Compound 5, 12α,15β,16α,17-tetrahydroxy-ent-kaurane] |  |  |  |  |  |  |  | IC50 [2]: > 20 µM; IC50 [7]: > 50 µM; IC50 [3]: > 20 µM; IC50 [4]: > 20 µM; IC50 [5]: > 20 µM; IC50 [6]: > 20 µM |
| CC1(C)CCCC2(C)C1CCC13C(O)C(C(=O)CC21)C(O)(CO)C3O (stereo not drawn) [Compound 6, 14β,15β,16β,17-tetrahydroxy-ent-kaur-12-one] | > 20 | > 50 |  | > 20 | > 20 | > 20 | > 20 |  |
| CC1(C)CCCC2(C)C1CCC13CC(C(=O)CC21)C(O)(CO)C3O (stereo not drawn) [Compound 7, 15β,16β,17-trihydroxy-ent-kaur-12-one] | > 20 | > 50 |  | > 20 | > 20 | > 20 | > 20 |  |
| C=C1C2CC3C4(C)CCCC(C)(C)C4CCC3(CC2O)C1O (stereo not drawn) [Compound 9, 13α,15β-trihydroxy-ent-atis-16(17)-ene] | > 20 | > 50 |  | > 20 | > 20 | > 20 | > 20 |  |
| C=C1C2CC3C4(C)CCCC(C)(C)C4CCC3(C1O)C(O)C2O (stereo not drawn) [Compound 10, 13α,14β,15β-trihydroxyl-ent-atis-16-ene] | > 20 | > 50 |  | > 20 | > 20 | > 20 | > 20 |  |
| CC1(C)CCCC2(C)C1CCC13CC=C(CO)C1OC(=O)CC23 (stereo not shown) [Compound 11, sarcopetal-13(16)-en-17-ol-12,15-olide] | > 20 | > 50 |  | > 20 | > 20 | > 20 | > 20 |  |
